Laboratory results published in patent US20120129842A1, “BISTHIAZOLE INHIBITORS OF PRO-MATRIX METALLOPROTEINASE ACTIVATION” (priority 2010, published 2012).

Biological target: T1, proMMP9(67-444;ΔFnII) (SEQ ID NO:5) (Homo sapiens, UniProt P14780, DEL216-390)
T1 construct: start methionine (N); made in house; host or cells: E. coli BL21(DE3) RIL
T1 sequence (P14780 with tags, fused parts or gaps DEL216-390): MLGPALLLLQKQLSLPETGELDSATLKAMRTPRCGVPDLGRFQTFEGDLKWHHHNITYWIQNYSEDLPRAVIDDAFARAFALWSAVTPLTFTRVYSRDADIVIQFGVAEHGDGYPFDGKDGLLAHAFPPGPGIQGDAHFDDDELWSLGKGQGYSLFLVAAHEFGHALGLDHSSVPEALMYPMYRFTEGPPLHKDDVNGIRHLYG
Test: ThermoFluor binding assay with proMMP9(67-444;ΔFnII)
Settings: pH 7.0
Procedure, shortened: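 Thermal shift binding with 3.5 μM proMMP9(67-444;ΔFnII) and 50 μM 1,8-ANS in 50 mM HEPES pH 7.0, 100 mM NaCl, 2.5 mM MgCl2, 300 μM CaCl2, 0.001% Tween-20, with serially diluted compound. Heated 40 to 90° C at 1° C/min; fluorescence-derived Tm fitted using DSC/ThermoFluor thermodynamic parameters.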

Compound: Cc1nc(C)c(-c2csc(Nc3cc(S(N)(=O)=O)ccc3OC(C)C)n2)s1 [Example 64, 3-(2′,4′-Dimethyl-[4,5′]bithiazolyl-2-ylamino)-4-isopropoxy-benzenesulfonamide.HBr]
- Kd: 260 nM
